The record followed here is US20240043386A1, “Modulators of the Cystic Fibrosis Transmembrane Conductance Regulator Protein and Methods of Use” (AbbVie Global Enterprises Ltd., priority 2021, published 2024).

Molecules are shown by their SMILES. Like-named read-outs stand apart in the source and are kept apart here.

As a reminder, the EC50 is the concentration giving half of the maximal effect.

Experiment [1] addresses T1, F508del/F508del CFTR (Homo sapiens, UniProt P13569, DEL508-508).
T1 construct: cells isolated from CF patients with the homozygous mutation; endogenous in cells; host or cells: primary human bronchial epithelial (hBE) cells from CF patients homozygous for F508del
As to the kind of experiment: Trans-Epithelial Current Clamp (TECC) assay using primary human bronchial epithelial cells. The note with it: for Emax (% Dual): maximum percent activity relative to positive control (co-corrector 0.15 μM + potentiator 0.45 μM = 100%), primary hBE cells F508del/F508del; for EC50: primary hBE cells homozygous F508del/F508del, test C2 corrector with co-corrector and potentiator, 18-24 hours at 37° C., equivalent CFTR current (IEQ)/AUC. Format: cell-based. The method, boiled down:
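Readout is the equivalent CFTR current (IEQ, from offset-corrected VT and RT) plus AUC from forskolin peak to bumetanide addition, recorded on TECC-24 at 36.5° C. Beforehand, homozygous F508del hBE cultures received correctors with co-corrector and potentiator basolaterally for 18-24 h at 37° C.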

In experiment [2] the target is T2, F508delCFTR (Homo sapiens, UniProt P13569, DEL508-508).
T2 construct: expressed in transfected cells; host or cells: CFBE41o- human lung-derived epithelial cell line, doxycycline-inducible expression
T2 sequence (P13569 with tags, fused parts or gaps DEL508-508): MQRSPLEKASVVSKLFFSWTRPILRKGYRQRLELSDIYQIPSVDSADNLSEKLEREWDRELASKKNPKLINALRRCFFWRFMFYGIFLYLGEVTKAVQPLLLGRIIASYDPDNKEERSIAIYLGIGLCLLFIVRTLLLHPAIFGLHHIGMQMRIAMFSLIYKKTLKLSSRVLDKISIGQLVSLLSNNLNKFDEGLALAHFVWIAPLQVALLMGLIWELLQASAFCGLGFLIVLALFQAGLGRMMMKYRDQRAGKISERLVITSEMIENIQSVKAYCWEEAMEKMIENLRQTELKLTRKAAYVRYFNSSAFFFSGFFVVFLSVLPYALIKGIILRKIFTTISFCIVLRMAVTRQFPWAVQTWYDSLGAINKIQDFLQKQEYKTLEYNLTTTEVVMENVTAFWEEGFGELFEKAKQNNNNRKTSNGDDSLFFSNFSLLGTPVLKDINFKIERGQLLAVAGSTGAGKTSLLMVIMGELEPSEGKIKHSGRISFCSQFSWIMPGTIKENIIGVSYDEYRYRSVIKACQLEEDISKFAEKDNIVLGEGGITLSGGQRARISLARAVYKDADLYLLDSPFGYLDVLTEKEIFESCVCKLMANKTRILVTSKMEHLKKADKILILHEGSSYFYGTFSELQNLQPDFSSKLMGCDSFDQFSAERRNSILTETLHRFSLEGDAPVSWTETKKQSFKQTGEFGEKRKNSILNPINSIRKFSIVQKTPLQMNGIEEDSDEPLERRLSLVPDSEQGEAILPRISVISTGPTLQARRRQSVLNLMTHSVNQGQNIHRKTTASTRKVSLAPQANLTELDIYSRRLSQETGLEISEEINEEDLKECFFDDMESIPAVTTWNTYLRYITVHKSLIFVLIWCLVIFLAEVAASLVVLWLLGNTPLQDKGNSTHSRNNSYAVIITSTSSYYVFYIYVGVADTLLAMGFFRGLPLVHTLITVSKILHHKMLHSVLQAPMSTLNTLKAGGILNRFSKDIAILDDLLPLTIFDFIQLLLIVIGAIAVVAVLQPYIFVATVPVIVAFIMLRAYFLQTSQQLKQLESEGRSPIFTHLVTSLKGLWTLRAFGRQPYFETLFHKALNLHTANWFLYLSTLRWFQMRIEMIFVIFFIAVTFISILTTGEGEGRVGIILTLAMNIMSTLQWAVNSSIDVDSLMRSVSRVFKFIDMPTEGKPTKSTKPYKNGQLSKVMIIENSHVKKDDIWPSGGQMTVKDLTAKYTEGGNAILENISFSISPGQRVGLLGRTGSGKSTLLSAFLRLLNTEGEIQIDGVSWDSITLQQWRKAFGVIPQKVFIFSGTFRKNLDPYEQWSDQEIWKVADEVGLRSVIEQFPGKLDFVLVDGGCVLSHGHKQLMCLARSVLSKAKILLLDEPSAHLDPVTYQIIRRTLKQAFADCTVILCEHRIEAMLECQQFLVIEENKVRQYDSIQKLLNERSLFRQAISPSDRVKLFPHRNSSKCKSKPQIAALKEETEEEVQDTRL
Put plainly: Cell Surface Expression-Horse Radish Peroxidase (CSE-HRP) assay in CFBE41o-F508delCFTR-HRP cells. The experiment is classed as cell-based. The note with it: for EC50: CFBE41o-F508delCFTR-HRP cells, 18-24 hours at 33° C., luminescence; for Maximum % activity (without co-corrector) / Maximum % activity (with co-corrector): normalized to on-plate positive control corrector (2 μM). The method, boiled down: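 Test compounds were tested alone or alongside a co-corrector (2 μM), 8-point 3-fold series from 20 or 30 μM, for 18–24 h at 33 °C on doxycycline-induced CFBE41o-F508delCFTR-HRP cells. After washing, luminol luminescence reported cell-surface HRP-tagged CFTR, normalized to the positive control (% activity). EC50 was fitted with a variable Hill slope sigmoid from triplicate plates; Z′ >0.5 required.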

[3] abbreviates: with co-corrector (2 μM), read-out: EC50 (with co-corrector).
Where [4] appears, read: without co-corrector, read-out: EC50 (without co-corrector).

T1 sequence (P13569 with tags, fused parts or gaps DEL508-508): as above

As to `COc1ccc(C)cc1[C@]1(C(=O)NS(=O)(=O)c2cccc3nc(C)ccc23)C[C@@H]1c1ccccn1` [Example 14, (1S,2S)-1-(2-methoxy-5-methylphenyl)-N-(2-methylquinoline-5-sulfonyl)-2-(pyridin-2-yl)cyclopropane-1-carboxamide], in experiment [1], the “Emax (% Dual)” value was found to be 165 % Dual. Moreover, the 50% effective concentration (EC50) in experiment [1] came to 0.799 µM; in experiment [2] (setting [3]), 2.8 µM; in experiment [2] (setting [4]) it was 3.81 µM. For the same compound, the “Maximum % activity (without co-corrector)” value in experiment [2] (without co-corrector) was determined as 520%.

As to `COc1ccc(C)cc1[C@]1(C(=O)NS(=O)(=O)c2cccc3nc(C)ccc23)C[C@@H]1c1cnc(C)cn1` (single isomer, unassigned) [Example 92], the “Emax (% Dual)” value in experiment [1] worked out at 187 % Dual. Also, the EC50 in experiment [1] stood at 0.0876 µM; in experiment [2] (setting [3]), 1.15 µM; in experiment [2] (setting [4]) it was 2.13 µM. Besides, in experiment [2] (without co-corrector), the “Maximum % activity (without co-corrector)” value worked out at 653%.

For the compound `COc1ccc(C)cc1[C@@]1(C(=O)NS(=O)(=O)c2cccc3nc(C)ccc23)C[C@H]1c1cnc(C(C)C)cn1` (racemic) [Example 61, rac-(1r,2r)-1-(2-methoxy-5-methylphenyl)-N-(2-methylquinoline-5-sulfonyl)-2-[5-(propan-2-yl)pyrazin-2-yl]cyclopropane-1-carboxamide], the “Emax (% Dual)” value in experiment [1] is 281 % Dual. Besides, the results for the EC50 in experiment [1], in experiment [2] (setting [3]) and in experiment [2] (setting [4]) were 0.0745 µM, 1.11 µM and 2.44 µM, respectively. Besides, the “Maximum % activity (without co-corrector)” value in experiment [2] (without co-corrector) was 700%.

Regarding `COc1ccc(C)cc1[C@@]1(C(=O)NS(=O)(=O)c2cccc3nc(C)ccc23)C[C@H]1c1ccc(C(F)(F)F)cc1` (single isomer, unassigned) [Example 19], in experiment [1], the “Emax (% Dual)” value came to 215 % Dual. The EC50 in experiment [1] came to 0.0096 µM; in experiment [2] (setting [3]), 0.588 µM; in experiment [2] (setting [4]) it was 1.01 µM.

As for `COc1ccc(C)cc1[C@@]1(C(=O)NS(=O)(=O)c2cccc3nc(C)ccc23)C[C@H]1c1cccnc1OC` [Example 49, (1R,2S)-1-(2-methoxy-5-methylphenyl)-2-(2-methoxypyridin-3-yl)-N-(2-methylquinoline-5-sulfonyl)cyclopropane-1-carboxamide], the “Emax (% Dual)” value in experiment [1] is 321 % Dual. The EC50 in experiment [1] amounted to 0.0358 µM; in experiment [2] (setting [3]), 1.17 µM; in experiment [2] (setting [4]) it was 1.99 µM. Also, the “Maximum % activity (without co-corrector)” value in experiment [2] (without co-corrector) is on record as 453%.

Turning to `COc1ccc([C@@H]2C[C@]2(C(=O)NS(=O)(=O)c2cccc3nc(C)ccc23)c2cc(C)ccc2OC)c(OC)n1` (racemic) [Example 79, rac-(1r,2s)-2-(2,6-dimethoxypyridin-3-yl)-1-(2-methoxy-5-methylphenyl)-N-(2-methylquinoline-5-sulfonyl)cyclopropane-1-carboxamide], in experiment [1], the “Emax (% Dual)” value came to 205 % Dual. The EC50 in experiment [1] was found to be 0.0216 µM; in experiment [2] (setting [3]), 0.171 µM; in experiment [2] (setting [4]) it was 0.465 µM. Further, the “Maximum % activity (with co-corrector)” value in experiment [2] (with co-corrector (2 μM)) is reported as 860%. For the same compound, the “Maximum % activity (without co-corrector)” value in experiment [2] (without co-corrector) was 388%.

Regarding `COc1ccc(C)cc1[C@@]1(C(=O)NS(=O)(=O)c2cccc3nc(C)ccc23)C[C@H]1c1cncc(C)n1` (racemic) [Example 35, rac-(1r,2r)-1-(2-methoxy-5-methylphenyl)-2-(6-methylpyrazin-2-yl)-N-(2-methylquinoline-5-sulfonyl)cyclopropane-1-carboxamide], the “Emax (% Dual)” value in experiment [1] came to 331 % Dual. For the same compound, the EC50 in experiment [1] was found to be 0.0479 µM; in experiment [2] (setting [3]), 1.22 µM; in experiment [2] (setting [4]), 1.71 µM. Moreover, in experiment [2] (without co-corrector), the “Maximum % activity (without co-corrector)” value is recorded as 582%.

Consider `COc1ccc(C)cc1[C@@]1(C(=O)NS(=O)(=O)c2cccc3nc(C)ccc23)C[C@H]1c1cccc(F)c1` (racemic) [Example 8, rac-(1r,2s)-2-(3-fluorophenyl)-1-(2-methoxy-5-methylphenyl)-N-(2-methylquinoline-5-sulfonyl)cyclopropane-1-carboxamide], for which the “Emax (% Dual)” value in experiment [1] amounted to 429 % Dual. Further, the EC50 in experiment [1] came out at 0.0014 µM; in experiment [2] (setting [3]), 0.504 µM; in experiment [2] (setting [4]) it was 0.844 µM.

As to `COc1ccc(C)cc1[C@@]1(C(=O)NS(=O)(=O)c2cccc3nc(C)ccc23)C[C@H]1c1ccccc1` (single isomer, unassigned) [Example 2], the “Emax (% Dual)” value in experiment [1] is 250 % Dual. For the same compound, the EC50 in experiment [1] stood at 0.0129 µM; in experiment [2] (setting [3]), 0.497 µM; in experiment [2] (setting [4]), 0.626 µM. For the same compound, the “Maximum % activity (without co-corrector)” value in experiment [2] (without co-corrector) is listed as 523%.

`COc1ccc([C@@H]2C[C@]2(C(=O)NS(=O)(=O)c2cccc3nc(C)ccc23)c2cc(C)ccc2OC)cn1` [Example 33, (1R,2S)-1-(2-methoxy-5-methylphenyl)-2-(6-methoxypyridin-3-yl)-N-(2-methylquinoline-5-sulfonyl)cyclopropane-1-carboxamide]: in experiment [1], the “Emax (% Dual)” value is listed as 215 % Dual. Also, the half-maximal effective concentration (EC50) stood at 0.0488 µM in experiment [1], 0.906 µM in experiment [2] (setting [3]) and 1.27 µM in experiment [2] (setting [4]). For the same compound, in experiment [2] (without co-corrector), the “Maximum % activity (without co-corrector)” value was determined as 470%.

On to `COc1ccc(C)cc1[C@]1(C(=O)NS(=O)(=O)c2cccc3nc(C)ccc23)C[C@@H]1c1ccc(C(F)(F)F)cc1` (single isomer, unassigned) [Example 18], for which the “Emax (% Dual)” value in experiment [1] is given as 270 % Dual. In addition, the concentration giving a half-maximal response (EC50) in experiment [1] is 0.0013 µM; in experiment [2] (setting [4]), 0.198 µM.

As to `COc1ccc(C)cc1[C@@]1(C(=O)NS(=O)(=O)c2cccc3nc(C)ccc23)C[C@H]1c1cnc(C)cn1` (single isomer, unassigned) [Example 91], the “Emax (% Dual)” value in experiment [1] came out at 138 % Dual. Further, the values for the EC50 in experiment [1], in experiment [2] (setting [3]) and in experiment [2] (setting [4]) were above 0.8 µM, 4.34 µM and 5.24 µM, respectively. Also, the “Maximum % activity (with co-corrector)” value in experiment [2] (with co-corrector (2 μM)) came to 579%. Also, in experiment [2] (without co-corrector), the “Maximum % activity (without co-corrector)” value amounted to 226%.

Take `COc1ccc(C)cc1[C@]1(C(=O)NS(=O)(=O)c2cccc3nc(C)ccc23)C[C@@H]1c1ccc(C(F)F)nc1` [Example 70, (1S,2R)-2-[6-(difluoromethyl)pyridin-3-yl]-1-(2-methoxy-5-methylphenyl)-N-(2-methylquinoline-5-sulfonyl)cyclopropane-1-carboxamide]: in experiment [1], the “Emax (% Dual)” value is given as 291 % Dual. Moreover, the values for the 50% effective concentration (EC50) in experiment [1], in experiment [2] (setting [3]) and in experiment [2] (setting [4]) were 0.0118 µM, 2.6 µM and 4.23 µM, respectively. Besides, in experiment [2] (without co-corrector), the “Maximum % activity (without co-corrector)” value was found to be 482%.

For `COc1ccc(C)cc1[C@@]1(C(=O)NS(=O)(=O)c2cccc3nc(C)ccc23)C[C@H]1c1ccc(C)nc1OC` (single isomer, unassigned) [Example 85], the “Emax (% Dual)” value in experiment [1] worked out at 206 % Dual. Further, the EC50 in experiment [1] worked out at 0.0247 µM; in experiment [2] (setting [3]), 0.81 µM; in experiment [2] (setting [4]), 1.01 µM. Further, the “Maximum % activity (without co-corrector)” value in experiment [2] (without co-corrector) is recorded as 786%.

Take `COc1cccc([C@@H]2C[C@]2(C(=O)NS(=O)(=O)c2cccc3nc(C)ccc23)c2cc(C)ccc2OC)c1` (racemic) [Example 15, rac-(1r,2s)-1-(2-methoxy-5-methylphenyl)-2-(3-methoxyphenyl)-N-(2-methylquinoline-5-sulfonyl)cyclopropane-1-carboxamide]: the “Emax (% Dual)” value in experiment [1] amounted to 308 % Dual. Further, the values for the 50% effective concentration (EC50) in experiment [1], in experiment [2] (setting [3]) and in experiment [2] (setting [4]) were 0.00084 µM, 0.698 µM and 1.01 µM, respectively.

Turning to `COc1cncc([C@H]2C[C@@]2(C(=O)NS(=O)(=O)c2cccc3nc(C)ccc23)c2cc(C)ccc2OC)n1` (single isomer, unassigned) [Example 75], in experiment [1], the “Emax (% Dual)” value came out at 402 % Dual. In addition, the EC50 in experiment [1] came to 0.0362 µM; in experiment [2] (setting [3]), 0.635 µM; in experiment [2] (setting [4]), 1.65 µM. The “Maximum % activity (without co-corrector)” value in experiment [2] (without co-corrector) is 939%.

Consider `COc1cnc([C@@H]2C[C@]2(C(=O)NS(=O)(=O)c2cccc3nc(C)ccc23)c2cc(C)ccc2OC)cn1` (racemic) [Example 39, rac-(1r,2r)-1-(2-methoxy-5-methylphenyl)-2-(5-methoxypyrazin-2-yl)-N-(2-methylquinoline-5-sulfonyl)cyclopropane-1-carboxamide], for which, in experiment [1], the “Emax (% Dual)” value was 317 % Dual. In addition, the concentration giving a half-maximal response (EC50) in experiment [1] worked out at 0.018 µM; in experiment [2] (setting [3]) it was 0.639 µM; in experiment [2] (setting [4]) it was 1.23 µM. Moreover, the “Maximum % activity (without co-corrector)” value in experiment [2] (without co-corrector) is listed as 563%.

As to `COc1ccc(C)cc1[C@]1(C(=O)NS(=O)(=O)c2cccc3nc(C)ccc23)C[C@@H]1c1ccc(C(C)C)nc1OC` (single isomer, unassigned) [Example 88], the “Emax (% Dual)” value in experiment [1] was 275 % Dual. In addition, the EC50 in experiment [1] came to 0.0126 µM; in experiment [2] (setting [3]), 0.534 µM; in experiment [2] (setting [4]), 1.18 µM. Besides, the “Maximum % activity (without co-corrector)” value in experiment [2] (without co-corrector) worked out at 910%.

Consider `COc1nccc([C@@H]2C[C@]2(C(=O)NS(=O)(=O)c2cccc3nc(C)ccc23)c2cc(C)ccc2OC)n1` (single isomer, unassigned) [Example 99], for which the “Emax (% Dual)” value in experiment [1] was 126 % Dual. For the same compound, the figures for the EC50 in experiment [1], in experiment [2] (setting [3]) and in experiment [2] (setting [4]) were above 1 µM, 2.76 µM and 3.98 µM, respectively. For the same compound, in experiment [2] (with co-corrector (2 μM)), the “Maximum % activity (with co-corrector)” value is listed as 509%. Further, the “Maximum % activity (without co-corrector)” value in experiment [2] (without co-corrector) came out at 180%.
